Our source for the EC50 values is patent publication US11760722B2 (priority 2022, dated 2023).

In assay [1] the test system is human coronavirus (HCoV) 229E. In words: microbe, parasite or virus in culture. The assay is classed as cell-based, human coronavirus 229E. Particulars: MRCS cells, HCoV 229E, 3 days, CellTiter Glo, read-out: 229E CPE EC50. Background: ATP-based viability assays read luminescence as a measure of living cells.
Protocol: Test compounds were provided by the sponsor. Reference compound remdesivir was provided by WuXi AppTec. Compounds were assayed at 8 concentrations (to be defined by sponsor), in duplicate wells.
MRCS cells were obtained from the ATCC, and maintained in the Minimum Essential Medium supplemented with 10% FBS, 1% L-glutamine, 1% NEAA and 1% penicillin-streptomycin. Minimum Essential Medium supplemented with 5% FBS, 1% L-glutamine, 1% NEAA and 1% penicillin-streptomycin was used as the assay medium.
Cells were seeded in 96 well plates, in 100 μl per well of assay medium, and cultured at 37° C. and 5% CO2 overnight. Next day, test compound was diluted with assay medium and then added into the cells, 50 μl per well. Then 50 μl per well of assay medium diluted virus was added. The final volume of the cell culture was 200 μl per well. […] The CPE were measured by CellTiter Glo following the manufacturer's manual. The antiviral activity of compounds was calculated based on the protection of the virus-induced CPE at each concentration normalized by the virus control.
EC50 and CC50 values were calculated using the GraphPad Prism software using the nonlinear regression model of log(inhibitor) vs. response—Variable slope (four parameters).
Another assay relates to SARS-CoV-2 replicon. In words: microbe, parasite or virus in culture. The assay is classed as cell-based.
Setting [2] is: unidentified human coronavirus, 72 h.
[3] abbreviates: Severe acute respiratory syndrome coronavirus 2, Huh-7, 24 h; read-out: Replicon EC50.

Each structure is given as a SMILES string. Values joined by “and” are separate entries in the source; they are usually repeats but may differ in a detail not shown here. Identical values can stand only once. Like-named read-outs stand apart in the source and are kept apart here.

Broadly, the EC50 is the concentration at which the effect is half-maximal. In the case of `CC(C)(C)[C@H](NC(=O)CC#N)C(=O)N1C[C@H]2[C@@H]([C@H]1C(=O)N[C@H](C#N)C[C@@H]1CCNC1=O)C2(C)C` [Compound 33], the EC50 in assay [1] came out at 18000 nM; in assay [1] (setting [2]), 17800 nM.

On to `CNC(=S)N[C@H](C(=O)N1C[C@H]2[C@@H]([C@H]1C(=O)N[C@H](C#N)C[C@@H]1CCNC1=O)C2(C)C)C(C)(C)C` [Compound 35], for which the EC50 in assay [1] (setting [2]) amounted to 4960 nM. Take `CC(C)(C)[C@H](NS(=O)(=O)c1ccc(C(F)(F)F)cc1)C(=O)N1C[C@H]2[C@@H]([C@H]1C(=O)N[C@H](C#N)C[C@@H]1CCNC1=O)C2(C)C` [Compound 44]: the EC50 in the assay on SARS-CoV-2 replicon (read-out: Replicon EC50) is above 30000 nM. Consider `CN(C)S(=O)(=O)N[C@H](C(=O)N1C[C@H]2[C@@H]([C@H]1C(=O)N[C@H](C#N)C[C@@H]1CCNC1=O)C2(C)C)C(C)(C)C` [Compound 47, (1R,2S,5S)—N—((S)-1-cyano-2-((S)-2-oxopyrrolidin-3-yl)ethyl)-3-((S)-2-((N,N-dimethylsulfamoyl)amino)-3,3-dimethylbutanoyl)-6,6-dimethyl-3-azabicyclo[3.1.0]hexane-2-carboxamide], for which the EC50 in assay [1] amounted to 7320 nM; in assay [1] (setting [2]) it was 6190 nM. With `CC(C)(C)[C@H](NS(=O)(=O)N1CCOCC1)C(=O)N1C[C@H]2[C@@H]([C@H]1C(=O)N[C@H](C#N)C[C@@H]1CCNC1=O)C2(C)C` [Compound 49], the EC50 in assay [1] is 5780 nM; in assay [1] (setting [2]), 3880 nM.

For the molecule `CC(C)(C)[C@H](NC(=S)Nc1cccc(C(F)(F)F)c1)C(=O)N1C[C@H]2[C@@H]([C@H]1C(=O)N[C@H](C#N)C[C@@H]1CCNC1=O)C2(C)C` [Compound 52], the EC50 with SARS-CoV-2 replicon (setting [3]) was found to be 410 nM. Consider `CC(C)(C)NC(=S)N[C@H](C(=O)N1C[C@H]2[C@@H]([C@H]1C(=O)N[C@H](C#N)C[C@@H]1CCNC1=O)C2(C)C)C(C)(C)C` [Compound 56], for which the EC50 in the assay on SARS-CoV-2 replicon (Severe acute respiratory syndrome coronavirus 2, Huh-7, 24 h, read-out: Replicon EC50) was determined as 370 nM. For the molecule `CN1CCCC1C(=O)N[C@H](C(=O)N1C[C@H]2[C@@H]([C@H]1C(=O)N[C@H](C#N)C[C@@H]1CCNC1=O)C2(C)C)C(C)(C)C` (some centres unmarked) [Compound 58], the EC50 in the assay on SARS-CoV-2 replicon (setting [3]) was 4720 nM. On the same count and under the same terms, the figure for `CNC(C)(C)C(=O)N[C@H](C(=O)N1C[C@H]2[C@@H]([C@H]1C(=O)N[C@H](C#N)C[C@@H]1CCNC1=O)C2(C)C)C(C)(C)C` [Compound 59] is 16200 nM; for `CC(C)(C)OC(=O)N(C(=O)N1C[C@H]2[C@@H]([C@H]1C(=O)N[C@H](C#N)C[C@@H]1CCNC1=O)C2(C)C)[C@@H]1C[C@H]1C(F)F` [Compound 60] it is above 30000 nM; for `C=CC(=O)N[C@H](C(=O)N1C[C@H]2[C@@H]([C@H]1C(=O)N[C@H](C#N)C[C@@H]1CCNC1=O)C2(C)C)C(C)(C)C` [Compound 61] it is 2740 nM.

For `CC(C)(C)[C@H](NS(=O)(=O)N1CC2CC1C2)C(=O)N1C[C@H]2[C@@H]([C@H]1C(=O)N[C@H](C#N)C[C@@H]1CCNC1=O)C2(C)C` [Compound 62], the EC50 with SARS-CoV-2 replicon (setting [3]) worked out at 1490 nM. Consider `CC(C)(C)[C@H](NC(=O)C1CC2(CCC2)C1)C(=O)N1C[C@H]2[C@@H]([C@H]1C(=O)N[C@H](C#N)C[C@@H]1CCNC1=O)C2(C)C` [Compound 63], for which, in the assay with SARS-CoV-2 replicon (setting [3]), the EC50 stood at 730 nM.

In the case of `CC(C)(C)[C@H](NC(=O)CS(C)(=O)=O)C(=O)N1C[C@H]2[C@@H]([C@H]1C(=O)N[C@H](C#N)C[C@@H]1CCNC1=O)C2(C)C` [Compound 64], the EC50 with SARS-CoV-2 replicon (setting [3]) came out at 990 nM. Take `CC1(C(=O)N[C@H](C(=O)N2C[C@H]3[C@@H]([C@H]2C(=O)N[C@H](C#N)C[C@@H]2CCNC2=O)C3(C)C)C(C)(C)C)CCCN1` (some centres unmarked) [Compound 65]: the EC50 in the assay with SARS-CoV-2 replicon (setting [3]) was 18700 nM.

With `C=C(F)C(=O)N[C@H](C(=O)N1C[C@H]2[C@@H]([C@H]1C(=O)N[C@H](C#N)C[C@@H]1CCNC1=O)C2(C)C)C(C)(C)C` [Compound 66], the EC50 was found to be 1400 nM in assay [1] and 1080 nM in assay [1] (setting [2]). For the molecule `COC1(CC(=O)N[C@H](C(=O)N2C[C@H]3[C@@H]([C@H]2C(=O)N[C@H](C#N)C[C@@H]2CCNC2=O)C3(C)C)C(C)(C)C)CCC1` [Compound 67], the EC50 with SARS-CoV-2 replicon (setting [3]) is above 30000 nM. For the molecule `CC(C)(C)[C@H](NC(=O)CC12CC(C(F)(F)F)(C1)C2)C(=O)N1C[C@H]2[C@@H]([C@H]1C(=O)N[C@H](C#N)C[C@@H]1CCNC1=O)C2(C)C` [Compound 68], in the assay with SARS-CoV-2 replicon (setting [3]), the EC50 was 1920 nM. Same read-out and setting: the figure for `COC12CCC(C(=O)N[C@H](C(=O)N3C[C@H]4[C@@H]([C@H]3C(=O)N[C@H](C#N)C[C@@H]3CCNC3=O)C4(C)C)C(C)(C)C)(CC1)CC2` [Compound 69] is 10300 nM. Regarding `CC(C)(C)[C@H](NC(=O)C(Cl)(Cl)C(F)(F)F)C(=O)N1C[C@H]2[C@@H]([C@H]1C(=O)N[C@H](C#N)C[C@@H]1CCNC1=O)C2(C)C` [Compound 71], the EC50 worked out at 321 nM in assay [1] and 302 nM in assay [1] (setting [2]). On to `CCNC(=S)N[C@H](C(=O)N1C[C@H]2[C@@H]([C@H]1C(=O)N[C@H](C#N)C[C@@H]1CCNC1=O)C2(C)C)C(C)(C)C` [Compound 72], for which the EC50 in assay [1] is 890 nM; in assay [1] (setting [2]), 718 nM. On to `CC(C)(C)[C@H](NC(=O)Cc1ccc2c(c1)CCC2)C(=O)N1C[C@H]2[C@@H]([C@H]1C(=O)N[C@H](C#N)C[C@@H]1CCNC1=O)C2(C)C` [Compound 82], for which the EC50 was found to be 515 nM in assay [1] and 449 nM in assay [1] (setting [2]). As for `CC(C)(C)[C@H](NS(=O)(=O)c1cccc2ccccc12)C(=O)N1C[C@H]2[C@@H]([C@H]1C(=O)N[C@H](C#N)C[C@@H]1CCNC1=O)C2(C)C` [Compound 85], the EC50 in assay [1] amounted to 368 nM; in assay [1] (setting [2]), 238 nM. The like results for `CC(C)(C)[C@H](NS(=O)(=O)c1cccnc1)C(=O)N1C[C@H]2[C@@H]([C@H]1C(=O)N[C@H](C#N)C[C@@H]1CCNC1=O)C2(C)C` [Compound 93] were, in that order, 4380 nM and 3060 nM. In the case of `Cc1csc(S(=O)(=O)N[C@H](C(=O)N2C[C@H]3[C@@H]([C@H]2C(=O)N[C@H](C#N)C[C@@H]2CCNC2=O)C3(C)C)C(C)(C)C)c1` [Compound 112], the EC50 was 62 nM with SARS-CoV-2 replicon (setting [3]) and 86 nM in the assay on SARS-CoV-2 replicon (read-out: Replicon EC50). Turning to `C#CCC(=O)N[C@H](C(=O)N1C[C@H]2[C@@H]([C@H]1C(=O)N[C@H](C#N)C[C@@H]1CCNC1=O)C2(C)C)C(C)(C)C` [Compound 136], the EC50 in the assay on SARS-CoV-2 replicon (setting [3]) was 300 nM; in the assay on SARS-CoV-2 replicon (read-out: Replicon EC50), 320 nM and 420 nM and 540 nM. Take `CC(C)(C)[C@H](NS(=O)(=O)c1ccsc1)C(=O)N1C[C@H]2[C@@H]([C@H]1C(=O)N[C@H](C#N)C[C@@H]1CCNC1=O)C2(C)C` [Compound 139]: the EC50 with SARS-CoV-2 replicon (setting [3]) stood at 140 nM; with SARS-CoV-2 replicon (read-out: Replicon EC50), 160 nM. In the same order, the values of `CCOc1ccccc1S(=O)(=O)N[C@H](C(=O)N1C[C@H]2[C@@H]([C@H]1C(=O)N[C@H](C#N)C[C@@H]1CCNC1=O)C2(C)C)C(C)(C)C` [Compound 143] are 65 nM and 130 nM. In the same order, the values of `CC(C)(C)[C@H](NC(=O)C(F)(F)OCC(F)(F)F)C(=O)N1C[C@H]2[C@@H]([C@H]1C(=O)N[C@H](C#N)C[C@@H]1CCNC1=O)C2(C)C` [Compound 144] are 110 nM and 180 nM. The like results for `CC(C)(C)[C@H](NC(=O)c1cccc(S(F)(F)(F)(F)F)c1)C(=O)N1C[C@H]2[C@@H]([C@H]1C(=O)N[C@H](C#N)C[C@@H]1CCNC1=O)C2(C)C` [Compound 145] were, in that order, 3960 nM and 4000 nM. On to `CC(C)(C)[C@H](NC(=O)C(F)(F)C(F)(F)C(F)(F)C(F)(F)F)C(=O)N1C[C@H]2[C@@H]([C@H]1C(=O)N[C@H](C#N)C[C@@H]1CCNC1=O)C2(C)C` [Compound 146], for which the EC50 with SARS-CoV-2 replicon (setting [3]) turned out to be 80 nM; in the assay on SARS-CoV-2 replicon (read-out: Replicon EC50), 85 nM. As to `CC(C)(C)[C@H](NC(=O)c1ccc(S(F)(F)(F)(F)F)cc1)C(=O)N1C[C@H]2[C@@H]([C@H]1C(=O)N[C@H](C#N)C[C@@H]1CCNC1=O)C2(C)C` [Compound 147], the EC50 in the assay with SARS-CoV-2 replicon (setting [3]) is above 10000 nM. Turning to `Cc1c(S(=O)(=O)N[C@H](C(=O)N2C[C@H]3[C@@H]([C@H]2C(=O)N[C@H](C#N)C[C@@H]2CCNC2=O)C3(C)C)C(C)(C)C)sc2ccc(F)cc12` [Compound 148], the EC50 in the assay with SARS-CoV-2 replicon (setting [3]) was 16 nM.

As to `CC(C)(C)[C@H](NC(=O)CC(C(F)(F)F)C(F)(F)F)C(=O)N1C[C@H]2[C@@H]([C@H]1C(=O)N[C@H](C#N)C[C@@H]1CCNC1=O)C2(C)C` [Compound 149], the EC50 in the assay on SARS-CoV-2 replicon (setting [3]) amounted to 240 nM. In the case of `CN([C@H](C(=O)N1C[C@H]2[C@@H]([C@H]1C(=O)N[C@H](C#N)C[C@@H]1CCNC1=O)C2(C)C)C(C)(C)C)S(=O)(=O)c1ccc2ccccc2c1` [Compound 150], in the assay with SARS-CoV-2 replicon (setting [3]), the EC50 was determined as 2910 nM. Turning to `Cc1cc(C)c(S(=O)(=O)N[C@H](C(=O)N2C[C@H]3[C@@H]([C@H]2C(=O)N[C@H](C#N)C[C@@H]2CCNC2=O)C3(C)C)C(C)(C)C)c(C)c1` [Compound 152], in the assay with SARS-CoV-2 replicon (setting [3]), the EC50 was 65 nM. On to `CCN([C@H](C(=O)N1C[C@H]2[C@@H]([C@H]1C(=O)N[C@H](C#N)C[C@@H]1CCNC1=O)C2(C)C)C(C)(C)C)S(=O)(=O)c1ccc(OC)cc1` [Compound 153], for which the EC50 in the assay with SARS-CoV-2 replicon (setting [3]) was determined as 2110 nM. On the same count and under the same terms, the same measure for `CN([C@H](C(=O)N1C[C@H]2[C@@H]([C@H]1C(=O)N[C@H](C#N)C[C@@H]1CCNC1=O)C2(C)C)C(C)(C)C)S(=O)(=O)c1ccc(Cl)s1` [Compound 155]: above 10000 nM; for `CN([C@H](C(=O)N1C[C@H]2[C@@H]([C@H]1C(=O)N[C@H](C#N)C[C@@H]1CCNC1=O)C2(C)C)C(C)(C)C)S(=O)(=O)c1cccc2ccccc12` [Compound 156]: 1400 nM; for `CCCc1ccc(S(=O)(=O)N[C@H](C(=O)N2C[C@H]3[C@@H]([C@H]2C(=O)N[C@H](C#N)C[C@@H]2CCNC2=O)C3(C)C)C(C)(C)C)s1` [Compound 171]: 29 nM.
